Measured values from paper PMC10539439 (Pharmacological Reports, 2023).
Values joined by “and” are separate entries in the source; they are usually repeats but may differ in a detail not shown here. Equal values may be shown once. Read-outs that look alike come from different tables or passages of the source.

How the values were obtained:
[1] = Distribution in brain after ip administration; type: in vivo, rat; settings: brain; for concentration in brain (single sample): individual samples 1-3
Procedure: (§1) For the pharmacokinetic study, a group of 56 adult male rats (Wistar, 220–250 g, […]) were used in the experiment. Animals were purchased from the Animal House of the Faculty of Pharmacy of Jagiellonian University Medical College, Krakow, Poland. […] These were then given through an intraperitoneally injections (ip) at a dose of 0.3 mg/kg and 0.4 mg/kg, respectively. Blood samples were collected at 0 min (predose), 5 min, 15 min, 30 min, 60 min, 120 min, and 240 min after compound administration. Blood and brain samples were collected under general anesthesia induced by ip injections of 50 mg/kg ketamine plus 8 mg/kg xylazine. Blood samples were taken in heparinized tubes and immediately centrifuged at 3500 rpm for 10 min, and plasma was collected. Brain and plasma samples were immediately frozen at – 80 ℃ for LC/MS/MS analysis. All experimental procedures were carried out according to EU Directive 2010/63/EU and approved by the I Local Ethics Committee for Animal Experiments of the Jagiellonian University in Krakow, Poland (No. 94/2016).
(§2) The pharmacokinetic parameters were calculated using a non-compartmental approach from the average concentration values, using Phoenix WinNonlin software (Certara, Princeton, NJ 08540 USA). The first-order elimination rate constant (λz) was calculated by linear regression of time versus log concentration. Next, the area under the mean plasma and the concentration in the brain versus the time curve (AUC0→t) were estimated using the log-linear trapezoidal rule (Eq. 1), where Cn is the concentration of the last sampling of each compound1 AUC0→t=∑i=1n(Ci+Ci+1)/2·ti+1-ti+Cn/λz.
(§3) The quantification of compounds in plasma and brain samples was performed using the Sciex API 3200 triple quadrupole mass spectrometer (Concord, Ontario, Canada) equipped with an electrospray (ESI) ionization interface. This instrument was coupled to an Elite LaChrom (Hitachi, USA) HPLC system. Data acquisition and processing were performed using Sciex Analyst 1.5.2 data collection and integration software. After preparation, the samples were injected (20 µL) onto XBridge C18 (2.1 mm × 30 mm, 3.5 μm, Waters, Milford, Massachusetts, USA) analytical column. The mobile phase consisted of 0.1% formic acid in acetonitrile (A) and 0.1% formic acid in water (B) was delivered in a gradient elution starting with 90% of eluent B, increasing for 2 min to 90% of eluent A, maintained for 3 min, and then returned for 5 min to 90% of eluent B, and maintained 90% of eluent B during 5 min at a flow rate of 300 µL/min. The total analysis time was 10 min. […] The ion spray source settings were as follows: spray voltage: 5.5 kV, heater temperature: 400 °C, curtain gas: 10 psi, source gas 1: 20 psi, and source gas 2: 20 psi.
Further dilutions were performed using the same solvent to prepare working standard solutions of the analyte at the following concentrations: 0.025, 0.05, 0.1, 0.25, 0.5, 1.0, 2.5, 5.0, 10, 25, and 50 µg/mL for calibration curve samples (CC) and 0.025, 0.075, 2.2, and 4.5 µg/mL for quality control samples (QC). To prepare samples for calibration curve or quality control samples, 45 µL of the matrix (plasma or brain homogenate) was added with 5 µL of internal standard solution (1 µg/mL) obtaining the final concentration of 100 ng/mL and 5 µL of standard working solutions at the needed CC or QC concentration levels. After the addition of the standard solution, the samples were mixed and purified.
A sample volume of 50 µL of plasma or brain homogenate was transferred to the clean Eppendorf tube and spiked with 5 µL of IS solution (1 µg/mL) obtaining the final concentration of 100 ng/mL. After 5 min of mixing (1500 rpm) proteins were precipitated using 200 µL ACN. After 10 min of sample shaking (1500 rpm), the incubation step was performed (10 min, 4 °C). The samples were then centrifuged (10,000 rpm, 10 min, 4 °C) and the supernatant was transferred to chromatographic vials for LC/MS/MS analysis.

[2] = Pharmacokinetics in plasma after ip administration; type: in vivo, rat; settings: plasma; for concentration in plasma (single sample): individual samples 1-3
Procedure: as §1, with “Poland. During the habituation period, the groups of 4 rats were kept in a plastic cage at a controlled room temperature (22 ± 2 ℃), humidity (55 ± 10%), full-spectrum cold white light (350–400 lx), in 12 h light/dark cycles (the lights on at 7:00 am, and off at 19:00 pm), and had free access to standard laboratory pellet and tap water.” for “Poland.”
as §2
The area under the first-moment curve (AUMC0→t) was estimated by calculating of the total area under the first-moment curve using Eq. 2, where tn is the time of last sampling2 AUMC0→t=∑i=1n(ti·Ci+ti+1·Ci+1)/2·ti+1-ti+(tn·Cn)/λz+Cn/λz2.
Mean residence time (MRT, Eq. 3) was calculated as3 MRT=AUMC0→t/AUC0→t.
Total clearance (ClT, Eq. 4) was calculated as4 C1T=F·Di.p./AUC0→t.
as §3
Further dilutions were performed using the same solvent to prepare working standard solutions of the analyte at the following concentrations: 0.025, 0.05, 0.1, 0.25, 0.5, 1.0, 2.5, 5.0, 10, 25, and 50 µg/mL for calibration curve samples (CC) and 0.025, 0.075, 2.2, and 4.5 µg/mL for quality control samples (QC). […]

TAAR1 = target: T1, TAAR1 (Homo sapiens, UniProt Q96RJ0); assay: Intrinsic activity, Hit Hunter cAMP assay; type: cell-based
T1 sequence (Q96RJ0 1-339): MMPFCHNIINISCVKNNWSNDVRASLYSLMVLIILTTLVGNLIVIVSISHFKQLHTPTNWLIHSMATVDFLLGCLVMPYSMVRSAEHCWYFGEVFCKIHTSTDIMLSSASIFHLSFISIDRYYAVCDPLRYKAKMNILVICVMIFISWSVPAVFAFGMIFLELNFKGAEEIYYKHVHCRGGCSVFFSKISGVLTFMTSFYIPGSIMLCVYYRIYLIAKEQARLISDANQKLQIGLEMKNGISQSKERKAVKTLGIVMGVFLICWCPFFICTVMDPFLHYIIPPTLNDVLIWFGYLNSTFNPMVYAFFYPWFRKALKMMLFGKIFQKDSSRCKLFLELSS
Procedure: The intrinsic activity study at cells with overexpression of TAAR1 (Eurofins, cat. No. 95-0173C2) was carried out at Eurofins Discoveries (Fremont, USA) using the Hit Hunter cAMP method. This assay monitors the activation of a GPCR via Gi and Gs secondary messenger signaling in a homogenous, non-imaging assay format using a technology developed by DiscoverX called Enzyme Fragment Complementation (EFC) with β-galactosidase (β-Gal) as the functional reporter. The enzyme is split into two complementary portions: EA for Enzyme Acceptor and ED for Enzyme Donor. ED is fused to cAMP and in the assay competes with cAMP generated by cells for binding to a cAMP-specific antibody. Active β-Gal is formed by complementation of exogenous EA to any unbound EDcAMP.
cAMP Hunter cell lines were expanded from freezer stocks according to standard procedures. Cells were seeded in a total volume of 20 µL into white-walled, 384-well microplates and incubated at 37 ℃ for the appropriate time prior to testing. For agonist determination, cells were incubated with a sample to induce a response. Media was aspirated from cells and replaced with 15 µL 2:1 HBSS/10 mM Hepes:cAMP XS + Ab reagent. Intermediate dilution of sample stocks was performed to generate 4X samples in assay buffer. 5 µL of 4 × sample was added to cells and incubated at 37 ℃ or room temperature for 30 or 60 min. Vehicle concentration was 1%. […] Microplates were read following signal generation with a PerkinElmer Envision instrument for chemiluminescent signal detection.

[3] = cAMP, Agonist, Conc(M) 1.00E-07

For Cl.N=C(N)N/N=C/c1c(Cl)cc(O)cc1Cl [HGB], the “concentration in brain (single sample)” value ([1]; 5 min) was 14.9497 ng/g and 11.5414 ng/g and 13.5496 ng/g, the “concentration in brain (mean)” value ([1]; 5 min after administration) was 13.3469 ng/g and the “concentration in brain (single sample)” value ([1]; 15 min) was 59.5505 ng/g and 64.4857 ng/g and 70.3065 ng/g. The “concentration in brain (mean)” value ([1]; 15 min after administration) was 64.7809 ng/g, the “concentration in brain (single sample)” value ([1]; 30 min) was 29.8349 ng/g and 23.7225 ng/g and 18.0636 ng/g and the “concentration in brain (mean)” value ([1]; 30 min after administration) was 23.8737 ng/g. The “concentration in brain (single sample)” value ([1]; 60 min) was 5.077 ng/g and 3.611 ng/g and 4.9468 ng/g, the “concentration in brain (mean)” value ([1]; 60 min after administration) was 4.545 ng/g and the “concentration in brain (single sample)” value ([1]; 120 min) was 3.263 ng/g and 4.746 ng/g and 3.8221 ng/g. For the same compound, the “concentration in brain (mean)” value ([1]; 120 min after administration) was 3.944 ng/g, the “concentration in brain (single sample)” value ([1]; 240 min) was 2.689 ng/g and 4.759 ng/g and 2.17 ng/g and the “concentration in brain (mean)” value ([1]; 240 min after administration) was 3.206 ng/g. The “concentration in plasma (single sample)” value ([2]; 5 min) was 41.279 ng/mL and 54.6155 ng/mL and 66.8757 ng/mL, the “concentration in plasma (mean)” value ([2]; 5 min after administration) was 54.2567 ng/mL and the “concentration in plasma (single sample)” value ([2]; 15 min) was 105.888 ng/mL and 100.591 ng/mL and 95.109 ng/mL. The “concentration in plasma (mean)” value ([2]; 15 min after administration) was 100.53 ng/mL, the “concentration in plasma (single sample)” value ([2]; 30 min) was 16.0042 ng/mL and 23.9125 ng/mL and 20.5783 ng/mL and the “concentration in plasma (mean)” value ([2]; 30 min after administration) was 20.165 ng/mL. For the same compound, the “concentration in plasma (single sample)” value ([2]; 60 min) was 44.699 ng/mL and 41.9435 ng/mL and 39.1715 ng/mL, the “concentration in plasma (mean)” value ([2]; 60 min after administration) was 41.938 ng/mL and the “concentration in plasma (single sample)” value ([2]; 120 min) was 10.1897 ng/mL and 6.772 ng/mL and 9 ng/mL. For the same compound, the “concentration in plasma (mean)” value ([2]; 120 min after administration) was 8.6536 ng/mL, the “concentration in plasma (single sample)” value ([2]; 240 min) was 5.591 ng/mL and 8.595 ng/mL and 5.3874 ng/mL and the “concentration in plasma (mean)” value ([2]; 240 min after administration) was 6.524 ng/mL.

For Clc1cccc(N2CCNCC2)c1 [mCPP, 1-(3-Chlorophenyl)piperazine], the EC50 (TAAR1) was 237 µM, the “Intrinsic activity at TAAR1 (in words)” value (TAAR1) was “weak agonistic activity” and the “Average Value (raw signal)” value (TAAR1; cAMP, Agonist, Conc(M) 1e-6) was 1440.00. For the same compound, the “Value 1 / Value 2 (raw signal)” value (TAAR1; cAMP, Agonist, Conc(M) 1e-6) was 1520 and 1360, the “Average Value (raw signal)” value (TAAR1; cAMP, Agonist, Conc(M) 1e-5) was 1660.00 and the “Value 1 / Value 2 (raw signal)” value (TAAR1; cAMP, Agonist, Conc(M) 1e-5) was 1520 and 1800. For the same compound, the “Average Value (raw signal)” value (TAAR1; cAMP, Agonist, Conc(M) 0.0001) was 2760.00, the “Value 1 / Value 2 (raw signal)” value (TAAR1; cAMP, Agonist, Conc(M) 0.0001) was 2560 and 2960 and the Emax at 100 µM (TAAR1; cAMP, Agonist, Conc(M) 0.0001 (10^–4 M), read-out: % Efficacy (of the full agonist tyramine)) was 34%. For the same compound, the “Average Value (raw signal)” value (TAAR1; [3]) was 1260.00 and the “Value 1 / Value 2 (raw signal)” value (TAAR1; [3]) was 1440 and 1080.

For NCCc1ccc(O)cc1 [p-Tyramine], the “Curve Bottom” value (TAAR1; cAMP, Agonist) was -5.337, the “Curve Top” value (TAAR1; cAMP, Agonist) was 100.3 and the Hill (TAAR1; cAMP, Agonist) was 1.0838. The “Raw Value” (TAAR1; cAMP, Agonist, Conc 0.0254026) was 800 and 1040, the “Raw Value” (TAAR1; cAMP, Agonist, Conc 0.0762079) was 1080 and 1160 and the “Percent Efficacy” value (TAAR1; cAMP, Agonist, Conc 0.228624) was 12.1951 and 16.0976. For the same compound, the “Raw Value” (TAAR1; cAMP, Agonist, Conc 0.228624) was 1640, the “Percent Efficacy” value (TAAR1; cAMP, Agonist, Conc 0.685871) was 41.0732 and 48.8781 and the “Raw Value” (TAAR1; cAMP, Agonist, Conc 0.685871) was 3120 and 3520. The “Percent Efficacy” value (TAAR1; cAMP, Agonist, Conc 2.05761) was 73.0732 and 71.5122, the “Raw Value” (TAAR1; cAMP, Agonist, Conc 2.05761) was 4760 and 4680 and the “Percent Efficacy” value (TAAR1; cAMP, Agonist, Conc 6.17284) was 84.7805 and 92.5854. For the same compound, the “Raw Value” (TAAR1; cAMP, Agonist, Conc 6.17284) was 5360 and 5760, the “Percent Efficacy” value (TAAR1; cAMP, Agonist, Conc 18.5185) was 89.4634 and 99.6098 and the “Raw Value” (TAAR1; cAMP, Agonist, Conc 18.5185) was 5600 and 6120. For the same compound, the “Percent Efficacy” value (TAAR1; cAMP, Agonist, Conc 55.5556) was 100.39 and 104.293, the “Raw Value” (TAAR1; cAMP, Agonist, Conc 55.5556) was 6160 and 6360 and the “Percent Efficacy” value (TAAR1; cAMP, Agonist, Conc 166.667) was 105.073 and 97.2683. The “Raw Value” (TAAR1; cAMP, Agonist, Conc 166.667) was 6400 and 6000, the “Percent Efficacy” value (TAAR1; cAMP, Agonist, Conc 500) was 107.415 and 90.2439 and the “Raw Value” (TAAR1; cAMP, Agonist, Conc 500) was 6520 and 5640. The Emax (TAAR1; cAMP, Agonist, read-out: Max Response) was 101% and the EC50 (TAAR1; cAMP, Agonist, read-out: RC50 (Result Type EC50)) was 0.802 µM.
